Experimental data: the supplement of paper PMC9938120

Columns and labels:
Experiment in all cases: drug sensitivity score (DSS3, normalised partial AUC of % inhibition dose-response) (DSS (score)); higher = more sensitive (stronger inhibition of viability); extreme values may be limits of the assay
[1] = system: FMOC25_2 (patient-derived low-grade serous ovarian cancer cells); conditions: 72 h; library: FO5A; assay format: 2D, 384-well, CellTiter-Glo
In short: (§1)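 Early-passage (under 10) patient-derived ovarian cancer cells were dispensed onto 384-well flat clear-bottom plates pre-plated with compounds at five concentrations spanning a 10,000-fold range, then incubated 72 h at 37 °C, 5% CO2. Viability was read with CellTiter-Glo, and the data were processed in Breeze. The drug sensitivity score is a partial area under the percent-inhibition dose-response curve divided by the log of the upper asymptote, with higher values meaning greater sensitivity.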

[2] = system: FMOC28 (patient-derived low-grade serous ovarian cancer cells); conditions: 72 h; library: FO5A; assay format: 2D, 384-well, CellTiter-Glo
In short: as §1

[3] = system: FMOC03 (patient-derived mucinous ovarian cancer cells); conditions: 72 h; library: FO5A; assay format: 2D, 384-well, CellTiter-Glo
In short: as §1

[4] = system: FMOC09 (patient-derived high-grade serous ovarian cancer cells); conditions: 72 h; library: FO5A; assay format: 2D, 384-well, CellTiter-Glo
In short: as §1

[5] = system: FMOC06 (patient-derived mucinous ovarian cancer cells); conditions: 72 h; library: FO5A; assay format: 2D, 384-well, CellTiter-Glo
In short: as §1

[6] = system: FMOC02_1 (patient-derived low-grade serous ovarian cancer cells); conditions: 72 h; library: FO5A; assay format: 2D, 384-well, CellTiter-Glo
In short: as §1

[7] = system: FMOC27 (patient-derived low-grade serous ovarian cancer cells); conditions: 72 h; library: FO5A; assay format: 2D, 384-well, CellTiter-Glo
In short: as §1

[8] = system: FMOC17 (patient-derived low-grade serous ovarian cancer cells); conditions: 72 h; library: FO5A; assay format: 2D, 384-well, CellTiter-Glo
In short: as §1

[9] = system: FMOC25_1 (patient-derived low-grade serous ovarian cancer cells); conditions: 72 h; library: FO4B; assay format: 2D, 384-well, CellTiter-Glo
In short: as §1

[10] = system: FMOC02_2 (patient-derived low-grade serous ovarian cancer cells); conditions: 72 h; library: FO5A; assay format: 2D, 384-well, CellTiter-Glo
In short: as §1

[11] = system: FMOC24 (patient-derived high-grade serous ovarian cancer cells); conditions: 72 h; library: FO5A; assay format: 2D, 384-well, CellTiter-Glo
In short: as §1

[12] = system: FMOC02_3 (patient-derived low-grade serous ovarian cancer cells); conditions: 72 h; library: FO5A; assay format: 2D, 384-well, CellTiter-Glo
In short: as §1

[13] = system: FMOC22 (patient-derived mucinous ovarian cancer cells); conditions: 72 h; library: FO5A; assay format: 2D, 384-well, CellTiter-Glo
In short: as §1

[14] = system: FMOC14 (patient-derived high-grade serous ovarian cancer cells); conditions: 72 h; library: FO5A; assay format: 2D, 384-well, CellTiter-Glo
In short: as §1

[15] = system: FMOC04 (patient-derived high-grade serous ovarian cancer cells); conditions: 72 h; library: FO5A; assay format: 2D, 384-well, CellTiter-Glo
In short: as §1

[16] = system: FMOC11 (patient-derived high-grade serous ovarian cancer cells); conditions: 72 h; library: FO5A; assay format: 2D, 384-well, CellTiter-Glo
In short: as §1

| SMILES | drug sensitivity score [1] | drug sensitivity score [2] | drug sensitivity score [3] | drug sensitivity score [4] | drug sensitivity score [5] | drug sensitivity score [6] | drug sensitivity score [7] | drug sensitivity score [8] | drug sensitivity score [9] | drug sensitivity score [10] | drug sensitivity score [11] | drug sensitivity score [12] | drug sensitivity score [13] | drug sensitivity score [14] | drug sensitivity score [15] | drug sensitivity score [16] |
| --- | --- | --- | --- | --- | --- | --- | --- | --- | --- | --- | --- | --- | --- | --- | --- | --- |
| Cc1cc(Nc2nc(N[C@@H](C)c3ncc(F)cn3)ncc2Cl)[nH]n1 [AZD1480] | 0.3 | 0 | 0 | 0 | 0 | 0.8 | 0 | 0.1 | 0 | 0.8 | 0 | 1.6 | 0 | 0 | 0 | 0 |
| COc1cc(CCc2cc(NC(=O)c3ccc(N4CC(C)NC(C)C4)cc3)n[nH]2)cc(OC)c1 (configuration not stated) [AZD4547] | 0 | 0 | 0 | 0 | 0 | 0 | 0 | 0 | 0 | 0 | 0 | 0 | 0 | 0 | 0 | 0 |
| CN(C)C(=O)c1ccc(S(=O)(=O)c2ccc(NC(=O)[C@@](C)(O)C(F)(F)F)c(Cl)c2)cc1 [AZD7545] | 0 | 2.4 | 0 | 0 | 0 | 0 | 0 | 0 | 0 | 0 | 0 | 0 | 0.8 | 0.4 | 0 | 0 |
| N#Cc1ccc2[nH]c(O)c(-c3ccc(CN4CCOCC4)cn3)c2c1 [AZD-1080] | 5.3 | 0 | 0 | 0 | 0 | 1.4 | 0 | 0.4 | 0 | 0 | 1.15 | 5.1 | 0 | 0 | 0.15 | 0 |
| Cc1cc([C@@H](C)Nc2ccccc2C(=O)O)c2nc(N3CCOCC3)cc(=O)n2c1 [AZD-6482] | 0.8 | 0 | 0.5 | 0.1 | 0 | 0 | 0 | 2.8 | 2.5 | 0.6 | 0.5 | 2.3 | 0 | 0.4 | 0 | 0.9 |
| C[C@@H](Nc1cc(F)cc(F)c1)c1cc(C(=O)N(C)C)cc2c(=O)cc(N3CCOCC3)oc12 [AZD-8186] | 2.1 | 1.6 | 1.6 | 2.4 | 3 | 1.5 | 5.3 | 4.9 | 1.5 | 2.6 | 0 | 3.3 | 0 | 0 | 0.75 | 1.8 |
| CCN1CCN(Cc2ccc(Nc3ncc(F)c(-c4cc(F)c5nc(C)n(C(C)C)c5c4)n3)nc2)CC1 [Abemaciclib] | 7.5 | 0 | 2.3 | 2.1 | 4 | 7 | 3.2 | 3.4 | 0.1 | 6.6 | 1.7 | 11.6 | 0 | 0.1 | 0.35 | 0.8 |
| C[C@]12CC[C@H](O)CC1=CC[C@@H]1[C@@H]2CC[C@]2(C)C(c3cccnc3)=CC[C@@H]12 [Abiraterone] | 0.6 | 0.6 | 0 | 0 | 0.1 | 0 | 0 | 0 | 0.3 | 1.3 | 4.9 | 0 | 0 | 2.3 | 0.05 | 0 |
| Cn1ncc(Cl)c1-c1cc(C(=O)N[C@H](CN)Cc2cccc(F)c2)sc1Cl [Afuresertib] | 4.3 | 3.8 | 0 | 1 | 2.9 | 4.7 | 5.4 | 3 | 2.9 | 6.6 | 1.3 | 4.4 | 0 | 3.2 | 1.65 | 0.2 |
| CCc1cc2c(cc1N1CCC(N3CCOCC3)CC1)C(C)(C)c1[nH]c3cc(C#N)ccc3c1C2=O [Alectinib] | 0 | 1.7 | 0.3 | 0 | 0.2 | 1.7 | 1.2 | 0.8 | 0.1 | 1.5 | 0.3 | 0.6 | 0 | 0 | 0 | 0.7 |
| Oc1ncnc2[nH]ncc12 [Allopurinol] | 0 | 0 | 0 | 0 | 0 | 0 | 0 | 0 | 1.3 | 0 | 0 | 0 | 0 | 0 | 0 | 0 |
| Cc1nc(NC(=O)N2CCC[C@H]2C(N)=O)sc1-c1ccnc(C(C)(C)C(F)(F)F)c1 [Alpelisib] | 4.8 | 5.9 | 2.3 | 4.3 | 4.1 | 5.3 | 0.2 | 1.9 | 4.7 | 5.7 | 0.35 | 6.5 | 0.7 | 0 | 0.9 | 1.4 |
